Experimental data: US11084824B2, “Pyrazolopyrimidine derivatives, preparation method thereof, and pharmaceutical composition for use in preventing or treating cancer, autoimmune disease and brain disease containing the same as an active ingredient” (Korea Research Institute of Chemical Technology, priority 2017, dated 2021)
Where a name gives a salt, the structure may show the parent alone.

Tests used:
[1] = biological target: Bruton's tyrosine kinase (BTK) (Homo sapiens (Human), UniProt Q06187); assay: BTK enzyme inhibition assay (Cisbio HTRF kit); format: biochemical; details: 30 minutes reaction, fluorescence 665 nm/620 nm
Chain of Bruton's tyrosine kinase (BTK) (Q06187 whole entry): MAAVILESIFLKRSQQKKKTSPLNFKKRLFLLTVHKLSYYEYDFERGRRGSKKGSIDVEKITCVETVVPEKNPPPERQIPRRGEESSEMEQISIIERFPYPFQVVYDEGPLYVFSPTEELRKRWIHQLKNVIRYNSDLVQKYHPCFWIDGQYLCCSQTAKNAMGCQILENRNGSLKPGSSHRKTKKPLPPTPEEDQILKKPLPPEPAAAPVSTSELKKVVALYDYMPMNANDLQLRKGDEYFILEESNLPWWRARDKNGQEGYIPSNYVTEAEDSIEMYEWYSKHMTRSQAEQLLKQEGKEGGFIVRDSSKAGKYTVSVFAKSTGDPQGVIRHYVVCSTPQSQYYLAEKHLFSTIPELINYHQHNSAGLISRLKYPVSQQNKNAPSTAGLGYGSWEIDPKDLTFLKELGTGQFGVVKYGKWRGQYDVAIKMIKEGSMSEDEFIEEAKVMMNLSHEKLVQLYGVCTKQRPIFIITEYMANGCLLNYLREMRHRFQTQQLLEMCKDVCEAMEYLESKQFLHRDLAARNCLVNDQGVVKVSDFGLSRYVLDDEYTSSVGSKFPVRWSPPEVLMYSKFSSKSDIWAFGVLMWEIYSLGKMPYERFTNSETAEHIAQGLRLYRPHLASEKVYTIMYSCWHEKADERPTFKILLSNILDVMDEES
Method: BTK enzyme evaluation with each compound of examples of the invention was performed by using BTK enzyme inhibition diagnosis kit (Cisbio, Codolet, France). […] Then, EDTA (ethylenediaminetetraacetic acid) was added thereto in order to terminate the reaction. At this time, the EDTA solution contained curopium-containing antibody (antiphosphoresidue antibody) and straptavidin-XL665 (SA-XL665, Cisbio). After incubation for 1 hour, fluorescence was measured. The emission values of 665 nm and 620 nm excited at 337 nm were measured with Envision reader. IC50 values were determined using GraphPad prism (version 5). Herein, the curve indicates a nonlinear regression model, which was determined by logarithmic functions and reaction values.

TMD8 cells = assay: TMD8 cell growth inhibition (WST-1, 72 hours); format: cell-based; details: Homo sapiens, TMD8 ABC type DLBCL cell line, WST-1, absorbance 450 nm
Method: TDM-8 cells, the ABC (activated B-cell) type DLBCL (diffuse large B cell lymphoma) cell line sensitive to BTK signaling, were seeded in a 96-well plate at 30% confluency. Then, the compounds of the invention were treated thereto at different concentrations. 72 hours later, WST-1 reagent was added thereto. One hour later, absorbance was measured at 450 nm by using a spectramax spectrophotometer.

SMILES | IC50 [1] [nM] | IC50 (TMD8 cells) [nM]
Cc1cccc(C)c1Nc1nn(C2CCCC2)c2nc(Nc3ccc4c(c3)CNCC4)ncc12 [Example 25, 1-cyclopentyl-N^3-(2,6-dimethylphenyl)-N^6-(1,2,3,4-tetrahydroisoquinoline-7-yl)-1H-pyrazolo[3,4-d]pyrimidine-3,6-diamine] | 0.3 | 90.3
Cc1ccc(NC(=O)c2cccc(C(F)(F)F)c2)cc1Nc1nn(C)c2nc(Nc3ccc4c(c3)CNCC4)ncc12 [Example 28, N-(4-methyl-3-((1-methyl-6-((1,2,3,4-tetrahydroisoquinoline-7-yl)amino)-1H-pyrazolo[3,4-d]pyrimidine-3-yl)amino)phenyl)-3-(trifluoromethyl)benzamide] | 3 | 17.9
Cc1ccc(NC(=O)c2cccc(C(F)(F)F)c2)c(C)c1Nc1nn(C)c2nc(Nc3ccc4c(c3)CNCC4)ncc12 [Example 29, N-(2,4-dimethyl-3-(1-methyl-6-(1,2,3,4-tetrahydroisoquinoline-7-ylamino)-1H-pyrazolo[3,4-d]pyrimidine-3-ylamino)phenyl)-3-(trifluoromethyl)benzamide] | 8 | 117
Cc1cc(C(=O)Nc2ccccn2)cc(C)c1Nc1nn(C)c2nc(Nc3ccc4c(c3)CNCC4)ncc12 [Example 34, 3,5-dimethyl-4-(1-methyl-6-(1,2,3,4-tetrahydroisoquinoline-7-ylamino)-1H-pyrazolo[3,4-d]pyrimidine-3-ylamino)-N-(pyridine-2-yl)benzamide] | 15 | 178
Cc1cc(F)cc(C)c1Nc1nn(C)c2nc(Nc3ccc4c(c3)CNCC4)ncc12 [Example 44, N^3-(4-fluoro-2,6-dimethylphenyl)-1-methyl-N^6-(1,2,3,4-tetrahydroisoquinoline-7-yl)-1H-pyrazolo[3,4-d]pyrimidine-3,6-diamine] | 1.7 | 69
Cc1cccc(Cl)c1Nc1nn(C)c2nc(Nc3ccc4c(c3)CNCC4)ncc12 [Example 48, N^3-(2-chloro-6-methylphenyl)-1-methyl-N^6 (1,2,3,4-tetrahydroisoquinoline-7-yl)-1H-pyrazolo[3,4-d]pyrimidine-3,6-diamine] | 1.28 | 50.2
Cc1cccc(C)c1Nc1nn(C)c2nc(Nc3ccc4c(c3)C(C(C)C)NCC4)ncc12 (stereo not shown) [Example 49, N^3-(2,6-dimethylphenyl)-N^6-(1-isopropyl-1,2,3,4-tetrahydroisoquinoline-7-yl)-1-methyl-1H-pyrazolo[3,4-d]pyrimidine-3,6-diamine] | 1.61 | 19.6
Cc1cccc(C)c1Nc1nn(C)c2nc(Nc3ccc4c(c3)CNC(C)(C)C4)ncc12 [Example 53, N^6-(3,3-dimethyl-1,2,3,4-tetrahydroisoquinoline-7-yl)-N^3-(2,6-dimethylphenyl)-1-methyl-1H-pyrazolo[3,4-d]pyrimidine-3,6-diamine] | 0.523 | 31.9
Cc1cccc(C)c1Nc1nn(C2CCC(O)CC2)c2nc(Nc3ccc4c(c3)CNCC4)ncc12 (stereo not shown) [Example 54, 4-(3-((2,6-dimethylphenyl)amino)-6-((1,2,3,4-tetrahydroisoquinoline-7-yl)amino)-1H-pyrazolo[3,4-d]pyrimidine-1-yl)cyclohexane-1-ol] | 1.14 | 60.9
Cc1cccc(C)c1Nc1nn(C)c2nc(Nc3ccc4c(c3)C(C)NC(C)(C)C4)ncc12 (stereo not shown) [Example 55, N3-(2,6-dimethylphenyl)-1-methyl-N 6-(1,3,3-trimethyl-1,2,3,4-tetrahydroisoquinoline-7-yl)-1H-pyrazolo[3,4-d]pyrimidine-3,6-diamine] | 0.847 | 16.8
Cc1cccc(C)c1Nc1nn(C)c2nc(Nc3ccc4c(c3)C(C)N(C)CC4)ncc12 (stereo not shown) [Example 62, N6-(1,2-dimethyl-1,2,3,4-tetrahydroisoquinoline-7-yl)-N 3-(2,6-dimethylphenyl)-1-methyl-1H-pyrazolo[3,4-d]pyrimidine-3,6-diamine] | 1.21 | 27.9

Second part, led by results:

IC50 [1] [nM] | SMILES | IC50 (TMD8 cells) [nM]
0.3 | Cc1cccc(C)c1Nc1nn(C)c2nc(Nc3ccc4c(c3)CN(CCO)CC4)ncc12 [Example 24, 2-(7-((3-((2,6-dimethylphenyl)amino)-1-methyl-1H-pyrazolo[3,4-d]pyrimidine-6-yl)amino)-3,4-dihydroisoquinoline-2(1H)-yl)ethane-1-ol] | 40.1
2 | Cc1cccc(C)c1Nc1nn(C2CCCCC2)c2nc(Nc3ccc4c(c3)CNCC4)ncc12 [Example 26, 1-cyclohexyl-N^3-(2,6-dimethylphenyl)-N^6 (1,2,3,4-tetrahydroisoquinoline-7-yl)-1H-pyrazolo[3,4-d]pyrimidine-3,6-diamine] | 64.9
0.8 | Cc1cccc(C)c1Nc1nn(C)c2nc(Nc3ccc4c(c3)CN(C(=O)CN(C)C)CC4)ncc12 [Example 31, 2-(dimethylamino)-1-(7-(3-(2,6-dimethylphenylamino)-1-methyl-1H-pyrazolo[3,4-d]pyrimidine-6-ylamino)-3,4-dihydroisoquinolin-2(1H)-yl)ethanone] | 64.2
0.7 | CCN1CCc2ccc(Nc3ncc4c(Nc5c(C)cccc5C)nn(C)c4n3)cc2C1 [Example 32, N3-(2,6-dimethylphenyl)-N^6-(2-ethyl-1,2,3,4-tetrahydroisoquinoline-7-yl)-1-methyl-1H-pyrazolo[3,4-d]pyrimidine-3,6-diamine] | 37.9
5 | Cc1cc(Oc2ccccc2)cc(C)c1Nc1nn(C)c2nc(Nc3ccc4c(c3)CNCC4)ncc12 [Example 33, N-(2,6-dimethyl-4-phenoxyphenyl)-1-methyl-N^6 (1,2,3,4-tetrahydroisoquinoline-7-yl)-1H-pyrazolo[3,4-d]pyrimidine-3,6-diamine] | 669
3 | COc1cc(C)c(Nc2nn(C)c3nc(Nc4ccc5c(c4)CNCC5)ncc23)c(C)c1 [Example 35, N^3-(4-methoxy-2,6-dimethylphenyl)-1-methyl-N^6-(1,2,3,4-tetrahydroisoquinoline-7-yl)-1H-pyrazolo[3,4-d]pyrimidine-3,6-diamine] | 99.3
44 | CCc1cccc(CC)c1Nc1nn(C)c2nc(Nc3ccc4c(c3)CNCC4)ncc12 [Example 36, N^3-(2,6-diethylphenyl)-1-methyl-N^6-(1,2,3,4-tetrahydroisoquinoline-7-yl)-1H-pyrazolo[3,4-d]pyrimidine-3,6-diamine] | 968
2.8 | Cc1ccc(Nc2nn(C)c3nc(Nc4ccc5c(c4)CNCC5)ncc23)c(C)c1 [Example 39, N^3-(2,4-dimethylphenyl)-1-methyl-N^6 (1,2,3,4-tetrahydroisoquinoline-7-yl)-1H-pyrazolo[3,4-d]pyrimidine-3,6-diamine] | 292
5.42 | Cc1ccc(NC(=O)c2cccc(C(F)(F)F)c2)cc1Nc1nn(C)c2nc(Nc3ccc4c(c3)C(C)NCC4)ncc12 (stereo not shown) [Example 47, N-(4-methyl-3-(1-methyl-6-(1-methyl-1,2,3,4-tetrahydroisoquinoline-7-ylamino)-1H-pyrazolo[3,4-d]pyrimidine-3-ylamino)phenyl)-3-(trifluoromethyl)benzamide] | 13.8
0.745 | Cc1cccc(C)c1Nc1nn(C)c2nc(Nc3ccc4c(c3)CNC4)ncc12 [Example 56, N^3-(2,6-dimethylphenyl)-N^6-(isoindolin-5-yl)-1-methyl-1H-pyrazolo[3,4-d]pyrimidine-3,6-diamine hydrochloride] | 58.9
1.69 | Cc1cccc(C)c1Nc1nn(C)c2nc(Nc3ccc4c(c3)C(C)(C)NCC4)ncc12 [Example 58, N6-(1,1-dimethyl-1,2,3,4-tetrahydroisoquinolin-7-yl)-N 3-(2,6-dimethylphenyl)-1-methyl-1H-pyrazolo[3,4-d]pyrimidine-3,6-diamine] | 8.77
1.84 | Cc1cccc(C)c1Nc1nn(C)c2nc(Nc3ccc4c(c3)C(C)(C)N(C)CC4)ncc12 [Example 59, N3-(2,6-dimethylphenyl)-1-methyl-N 6-(1,1,2-trimethyl-1,2,3,4-tetrahydroisoquinoline-7-yl)-1H-pyrazolo[3,4-d]pyrimidine-3,6-diamine] | 9.27
4.01 | CC(=O)N1CCc2ccc(Nc3ncc4c(Nc5c(C)cccc5C)nn(C)c4n3)cc2C1(C)C [Example 60, 1-(7-((3-((2,6-dimethylphenyl)amino)-1-methyl-1H-pyrazolo[3,4-d]pyrimidine-6-yl)amino)-1,1-dimethyl-3,4-dihydroisoquinoline-2(1H)-yl)ethane-1-one] | 159
1.03 | CC(=O)N1CCc2ccc(Nc3ncc4c(Nc5c(C)cccc5C)nn(C)c4n3)cc2C1C (stereo not shown) [Example 61, 1-(7-((3-((2,6-dimethylphenyl)amino)-1-methyl-1H-pyrazolo[3,4-d]pyrimidine-6-yl)amino)-1-methyl-3,4-dihydroisoquinoline-2(1H)-yl)ethane-1-one] | 96.4
2.13 | Cc1cccc(C)c1Nc1nn(C)c2nc(Nc3ccc4c(c3)CN(C)CC4(C)C)ncc12 [Example 63, N3-(2,6-dimethylphenyl)-1-methyl-N 6-(2,4,4-trimethyl-1,2,3,4-tetrahydroisoquinoline-7-yl)-1H-pyrazolo[3,4-d]pyrimidine-3,6-diamine] | 20.9
